Measured values taken from PMC11598835 (Viruses, 2024).
Converted amounts (≈) assume the structure as drawn. Like-named read-outs stand apart in the source and are kept apart here.

What was measured:
[1] = cited from earlier work
SARS-CoV-2 = conditions: read-out: EC50, anti-SARS-CoV-2; cited from earlier work
[2] = tested on: SARS-CoV-2 B.1 lineage isolate; test: microbe, parasite or virus in culture; conditions: Severe acute respiratory syndrome coronavirus 2, Calu-3, 24 h
HIV-1 = tested on: HIV-1; set-up: method as in ref 15 = [15]; conditions: read-out: EC50, antiviral activity for HIV-1; cited from earlier work
[3] = tested on: SARS-CoV-2 B.1 lineage isolate
in vitro = type: cell-based; conditions: human
[4] = molecular target: Recombinant SARS-CoV-2 Mpro (Severe acute respiratory syndrome coronavirus 2, UniProt P0DTD1); test: Protease inhibition FRET assay, Mpro; type: biochemical; conditions: Mpro 1.5 μM, substrate 50 μM
[5] = molecular target: Recombinant SARS-CoV-2 PLpro (Severe acute respiratory syndrome coronavirus 2, UniProt P0DTD1); test: biochemical; conditions: FRET, PLpro 1 μM
physchem = type: physicochemical; conditions: water, thermodynamic from solid
[6] = In vivo plasma pharmacokinetics in rats; conditions: male, Wistar, ip, rat
[7] = read-out: Inhibition of Viral Replication in Calu-3 (%)
[8] = read-out: difference in SARS-CoV-2 inhibition compared to compound 4a

Compound | inhibition at 10 µM [2, 7] | CC50 at 72 h (in vitro) | IC50 [4] | IC50 [5] | SI (CC50/EC50) [3] | selectivity indexes (SI), conclusions [3] | other results
COC(=O)N[C@H](C(=O)N[C@@H](Cc1ccccc1)[C@@H](O)CN(Cc1ccc(-c2ccccn2)cc1)NC(=O)[C@@H](NC(=O)OC)C(C)(C)C)C(C)(C)C [Atazanavir] | – | – | – | – | – | – | free fraction, experimental data [1]: 14%
CC(C)(C)[C@H](NC(=O)C(F)(F)F)C(=O)N1C[C@H]2[C@@H]([C@H]1C(=O)N[C@H](C#N)C[C@@H]1CCNC1=O)C2(C)C [Nirmatrelvir] | – | – | – | – | – | – | EC50 (SARS-CoV-2): 0.1 µM
COc1cc(OC)c2[nH]c3c(c2c1)C(=O)c1ccccc1C3=O [4e, 2,4-Dimethoxy-5H-benzo[b]carbazole-6,11-dione] | 47.1% | – | – | – | – | – | inhibition at 10 µM [2, 8]: 47.4%
COc1cc2[nH]c3ccccc3c2cc1C=O [O-Methylmukonal] | – | – | – | – | – | – | EC50 (HIV-1): 12 µM
CCOC(=O)c1ccc2[nH]c3c(c2c1)C(=O)c1ccccc1C3=O [4f, Ethyl 6,11-dioxo-6,11-dihydro-5H-benzo[b]carbazole-2-carboxylate] | 64% | – | – | – | – | – | Inhibition of Viral Replication in Calu-3 (%) ([3]; 10 µM): 64%
O=C1c2ccccc2C(=O)c2c1[nH]c1c2ccc2ccccc21 [4i, 7H-Dibenzo[a,h]carbazole-7,12(13H)-dione] | 85.9% | > 200 µM | > 200 µM | 148.7 ± 0.6 µM | >53.7 | > 50 µM | viability at 72 h, 100 µM (in vitro): 68%; EC50 [3]: 3.73 ± 0.6 µM; EC50 [2]: < 4 µM
Cc1ccc2[nH]c3c(c2c1)C(=O)c1ccccc1C3=O [4c, 2-Methyl-5H-benzo[b]carbazole-6,11-dione] | – | – | – | – | – | – | Inhibition of Viral Replication in Calu-3 (%) ([3]; 10 µM): ineffective
COc1ccc2[nH]c3c(c2c1)C(=O)c1ccccc1C3=O [4b, 2-Methoxy-5H-benzo[b]carbazole-6,11-dione] | 96.2% | > 200 µM | 0.37 ± 0.05 µM | 72.1 ± 0.1 µM | >119.0 | > 50 µM | difference in SARS-CoV-2 inhibition compared to compound 4a ([3]; 10 µM): no significant change
COc1cccc2c3c([nH]c12)C(=O)c1ccccc1C3=O [4d, 4-Methoxy-5H-benzo[b]carbazole-6,11-dione] | 86.5% | > 200 µM | > 200 µM | 190.8 ± 0.1 µM | >141.8 | > 50 µM | inhibition at 10 µM [2, 8]: 8.1%
CC(C)C(=O)OC[C@H]1O[C@@H](n2ccc(NO)nc2=O)[C@H](O)[C@@H]1O [Molnupiravir] | – | – | – | – | – | – | EC50 (SARS-CoV-2): 1.96 µM
O=C1c2ccccc2C(=O)c2c1[nH]c1ccccc21 [4a, 5H-Benzo[b]carbazole-6,11-dione] | 94.6% | > 200 µM | 0.11 ± 0.05 µM | 153 ± 0.1 µM | >266.7 | > 50 µM | solubility (physchem): 1.43 µg/mL (≈ 5.78 µM); CL/F ([6]; plasma, 5 mg/kg i.p.): 31.2 mL/min/kg; Vd/F ([6]; plasma, 5 mg/kg i.p., read-out: Vz/F): 98 ± 186 L/kg; half-life ([6]; plasma, 5 mg/kg i.p., read-out: t1/2,z (converted)): 37 ± 60 h; Cmax ([6]; in vivo, 5 mg/kg): 770 ± 120 nM; Tmax ([6]; in vivo, 5 mg/kg): 0.333 h; concentration at 24 h ([6]; in vivo, 5 mg/kg): 120 ± 40 nM
CCC(CC)COC(=O)[C@H](C)N[P@](=O)(OC[C@H]1O[C@@](C#N)(c2ccc3c(N)ncnn23)[C@H](O)[C@@H]1O)Oc1ccccc1 [Remdesivir] | – | – | – | – | – | – | EC50 (SARS-CoV-2): 2.49 µM
O=C1c2ccccc2C(=O)c2c1[nH]c1ccc(F)cc21 [4g, 2-Fluoro-5H-benzo[b]carbazole-6,11-dione] | 69.4% | – | – | – | – | – | Inhibition of Viral Replication in Calu-3 (%) ([3]; 10 µM): 69%
